Literature values in patent publication US20060281749A1, “Method for treating glaucoma IV B” (priority 2000, published 2006).

What was measured:
[1] = test system: Rhesus monkeys; conditions: drug treated vs. control eye, baseline and pilocarpine-stimulated conditions
[2] = test system: Rhesus monkeys; conditions: accommodative responses to i.m. pilocarpine

Cc1sc[n+](CC(=O)c2ccccc2)c1C.[Cl-] [4,5-dimethyl-3-(2-oxoethyl-phenethyl) thiazolium chloride]
improvement in ophthalmologic function (increase in outflow facility) [1]: improvement has been illustrated
Improvement in accommodation [2]: Improvement in accommodation has been illustrated
